Patent US10787443B2, “RAF-degrading conjugate compounds” (ZAMBONI CHEM SOLUTIONS INC., priority 2017, dated 2020)

test system: GST-Braf kinase domain and biotinylated E3 substrate adapter (VHL/EloB/EloC complex or CRBN318-425); assay: Dimerization assay (AlphaScreen/AlphaLisa), RAF/E3 dimerization; assay type: binding; settings: Table 15; relative value; compounds 4 fold serial dilutions from 20 μM

Row | SMILES | RAF/E3 Dimerization
1 | Cc1ncc(NC(=O)c2cccc(C(F)(F)F)c2)cc1-c1cnc(OCCCCCCc2cn(CCCCCC(=O)Nc3cccc4c3C(=O)N(C3CCC(=O)NC3=O)C4=O)nn2)c(N2CCOCC2)c1 (stereo not shown) [Compound 1.006, N-(6′-((6-(1-(6-((2-(2,6-dioxopiperidin-3-yl)-1,3-dioxoisoindolin-4-yl)amino)-6-oxohexyl)-1H-1,2,3-triazol-4-yl)hexyl)oxy)-2-methyl-5′-morpholino-[3,3′-bipyridin]-5-yl)-3-(trifluoromethyl)benzamide] | + (5% > RAF/E3 Dimerization)
2 | Cc1ncc(NC(=O)c2cccc(C(F)(F)F)c2)cc1-c1cnc(OCCc2cn(CCCCCC(=O)Nc3cccc4c3C(=O)N(C3CCC(=O)NC3=O)C4=O)nn2)c(N2CCOCC2)c1 (stereo not shown) [Compound 1.002, N-(6′-(2-(1-(6-((2-(2,6-dioxopiperidin-3-yl)-1,3-dioxoisoindolin-4-yl)amino)-6-oxohexyl)-1H-1,2,3-triazol-4-yl)ethoxy)-2-methyl-5′-morpholino-[3,3′-bipyridin]-5-yl)-3-(trifluoromethyl)benzamide] | + (5% > RAF/E3 Dimerization)
3 | Cc1ncc(NC(=O)c2cccc(C(F)(F)F)c2)cc1-c1cnc(OCCCCCc2cn(CCCCCC(=O)Nc3cccc4c3C(=O)N(C3CCC(=O)NC3=O)C4=O)nn2)c(N2CCOCC2)c1 (stereo not shown) [Compound 1.005, N-(6′-((5-(1-(6-((2-(2,6-dioxopiperidin-3-yl)-1,3-dioxoisoindolin-4-yl)amino)-6-oxohexyl)-1H-1,2,3-triazol-4-yl)pentyl)oxy)-2-methyl-5′-morpholino-[3,3′-bipyridin]-5-yl)-3-(trifluoromethyl)benzamide] | + (5% > RAF/E3 Dimerization)
4 | Cc1ncc(NC(=O)c2cccc(C(F)(F)F)c2)cc1-c1cnc(OCCCc2cn(CCCCCC(=O)Nc3cccc4c3C(=O)N(C3CCC(=O)NC3=O)C4=O)nn2)c(N2CCOCC2)c1 (stereo not shown) [Compound 1.003, N-(6′-(3-(1-(6-((2-(2,6-dioxopiperidin-3-yl)-1,3-dioxoisoindolin-4-yl)amino)-6-oxohexyl)-1H-1,2,3-triazol-4-yl)propoxy)-2-methyl-5′-morpholino-[3,3′-bipyridin]-5-yl)-3-(trifluoromethyl)benzamide] | + +

same assay, conditions: Table 16; relative value; compounds 4 fold serial dilutions from 20 μM

Row | SMILES | RAF/E3 Dimerization
5 | Cc1ncc(NC(=O)c2cccc(C(F)(F)F)c2)cc1-c1cnc(OCCOCCOCCOCC(=O)N[C@@H](C(=O)N2C[C@H](O)C[C@H]2C(=O)N[C@@H](C)c2ccc(-c3scnc3C)cc2)C(C)(C)C)c(N2CCOCC2)c1 [Compound 1.013, (2S,4R)-1-((R)-2-(tert-butyl)-14-((2′-methyl-5-morpholino-5′-(3-(trifluoromethyl)benza-mido)-[3,3′-bipyridin]-6-yl)oxy)-4-oxo-6,9,12-trioxa-3-azatetradecan-1-oyl)-4-hydroxy-N—((S)-1-(4-(4-methylthiazol-5-yl)phenyl)ethyl)pyrrolidine-2-carboxamide] | + + +

same assay, conditions: Table 17; relative value; compounds 4 fold serial dilutions from 20 μM

Row | SMILES | RAF/E3 Dimerization
6 | O=C1CCC(N2C(=O)c3cccc(NC(=O)CCCCCn4cc(COCCOCCOCCNC(=O)c5cc(Oc6ccc(NC(=O)Nc7ccc(Cl)c(C(F)(F)F)c7)cc6)ccn5)nn4)c3C2=O)C(=O)N1 (stereo not shown) [Compound 2.027, 4-(4-(3-(4-chloro-3-(trifluoromethyl)phenyl)ureido)phenoxy)-N-(2-(2-(2-((1-(6-((2-(2,6-dioxopiperidin-3-yl)-1,3-dioxoisoindolin-4-yl)amino)-6-oxohexyl)-1H-1,2,3-triazol-4-yl)methoxy)ethoxy)ethoxy)ethyl)picolinamide] | ++ (25% > RAF/E3 Dimerization ≥ 5%)
7 | Cc1ccc(NC(=O)c2cccc(C(F)(F)F)c2)cc1-c1cnc(OCCOCCOCCOCc2cn(CCCCCC(=O)N[C@@H](C(=O)N3C[C@H](O)C[C@H]3C(=O)N[C@@H](C)c3ccc(-c4scnc4C)cc3)C(C)(C)C)nn2)c(N2CCOCC2)c1 [Compound 2.011, (2S,4R)-1-((R)-3,3-dimethyl-2-(6-(4-((2-(2-(2-((5-(2-methyl-5-(3-(trifluoromethyl)benza-mido)phenyl)-3-morpholinopyridin-2-yl)oxy)ethoxy)ethoxy)ethoxy)methyl)-1H-1,2,3-triazol-1-yl)hexanamido)butanoyl)-4-hydroxy-N—((S)-1-(4-(4-methylthiazol-5-yl)phenyl)-ethyl)pyrrolidine-2-carboxamide] | +++++ (RAF/E3 Dimerization ≥75%)
8 | Cc1ccc(NC(=O)c2cccc(C(F)(F)F)c2)cc1-c1cnc(OCCCCc2cn(CCCCCC(=O)Nc3cccc4c3C(=O)N(C3CCC(=O)NC3=O)C4=O)nn2)c(N2CCOCC2)c1 (stereo not shown) [Compound 2.013, N-(3-(6-(4-(1-(6-((2-(2,6-dioxopiperidin-3-yl)-1,3-dioxoisoindolin-4-yl)amino)-6-oxohexyl)-1H-1,2,3-triazol-4-yl)butoxy)-5-morpholinopyridin-3-yl)-4-methylphenyl)-3-(trifluoromethyl)benzamide] | ++ (25% > RAF/E3 Dimerization ≥ 5%)
9 | CCCCCCNC(=O)Nc1cc(-c2cc3cnc(NCCOCCOCc4cn(CCCCCC(=O)N[C@@H](C(=O)N5C[C@H](O)C[C@H]5C(=O)N[C@@H](C)c5ccc(-c6scnc6C)cc5)C(C)(C)C)nn4)nc3nc2C)c(C)cc1F [Compound 2.039, (2S,4R)-1-((R)-2-(6-(4-((2-(2-((6-(4-fluoro-5-(3-hexylureido)-2-methylphenyl)-7-methylpyrido[2,3-d]pyrimidin-2-yl)amino)ethoxy)ethoxy)methyl)-1H-1,2,3-triazol-1-yl)hexanamido)-3,3-dimethylbutanoyl)-4-hydroxy-N—((S)-1-(4-(4-methylthiazol-5-yl)phenyl)ethyl)pyrrolidine-2-carboxamide] | +++++ (RAF/E3 Dimerization ≥75%)
10 | CC(NC(=O)c1ncnc(NCc2cn(CCCCCC(=O)Nc3cccc4c3C(=O)N(C3CCC(=O)NC3=O)C4=O)nn2)c1Cl)c1ncc(C(=O)Nc2cc(C(F)(F)F)c(Cl)cn2)s1 (stereo not shown) [Compound 2.044, N-(5-chloro-4-(trifluoromethyl)pyridin-2-yl)-2-(1-(5-chloro-6-(((1-(6-((2-(2,6-dioxopiperidin-3-yl)-1,3-dioxoisoindolin-4-yl)amino)-6-oxohexyl)-H-1,2,3-triazol-4-yl)methyl)amino)pyrimidine-4-carboxamido)ethyl)thiazole-5-carboxamide] | + (5% > RAF/E3 Dimerization)
11 | CCCCCCNC(=O)Nc1cc(-c2cc3cnc(NCCCCc4cn(CCCCCC(=O)N[C@@H](C(=O)N5C[C@H](O)C[C@H]5C(=O)N[C@@H](C)c5ccc(-c6scnc6C)cc5)C(C)(C)C)nn4)nc3nc2C)c(C)cc1F [Compound 2.037, (2S,4R)-1-((R)-2-(6-(4-(4-((6-(4-fluoro-5-(3-hexylureido)-2-methylphenyl)-7-methylpyrido[2,3-d]pyrimidin-2-yl)amino)butyl)-1H-1,2,3-triazol-1-yl)hexanamido)-3,3-dimethylbutanoyl)-4-hydroxy-N—((S)-1-(4-(4-methylthiazol-5-yl)phenyl)ethyl)pyrrolidine-2-carboxamide] | ++++ (75% > RAF/E3 Dimerization ≥ 50%)
12 | Cc1ncc(NC(=O)c2cccc(C(F)(F)F)c2)cc1-c1cnc(OCCOCc2cn(CCCCCC(=O)Nc3cccc4c3C(=O)N(C3CCC(=O)NC3=O)C4=O)nn2)c(N2CCOCC2)c1 (stereo not shown) [Compound 2.022, N-(6′-(2-((1-(6-((2-(2,6-dioxopiperidin-3-yl)-1,3-dioxoisoindolin-4-yl)amino)-6-oxohexyl)-1H-1,2,3-triazol-4-yl)methoxy)ethoxy)-2-methyl-5′-morpholino-[3,3′-bipyridin]-5-yl)-3-(trifluoromethyl)benzamide] | ++ (25% > RAF/E3 Dimerization ≥ 5%)
13 | CNc1ncc2cc(-c3cc(NC(=O)NCCCCCCOCCOCCOCCOCC(=O)N[C@@H](C(=O)N4C[C@H](O)C[C@H]4C(=O)N[C@@H](C)c4ccc(-c5scnc5C)cc4)C(C)(C)C)c(F)cc3C)c(C)nc2n1 [Compound 2.043, (2S,4R)-1-((R)-22-(tert-butyl)-1-((2-fluoro-4-methyl-5-(7-methyl-2-(methylamino)pyrido[2,3-d]pyrimidin-6-yl)phenyl)amino)-1,20-dioxo-9,12,15,18-tetraoxa-2,21-diazatricosan-23-oyl)-4-hydroxy-N—((S)-1-(4-(4-methylthiazol-5-yl)phenyl)ethyl)pyrrolidine-2-carboxamide] | ++ (25% > RAF/E3 Dimerization ≥ 5%)
14 | Cc1ncc(NC(=O)c2cccc(C(F)(F)F)c2)cc1-c1cnc(OCCOCCOCCOCC(=O)NCCOCCCc2cccc3c2CN(C2CCC(=O)NC2=O)C3=O)c(N2CCOCC2)c1 (stereo not shown) [Compound 2.020, N-(6′-((18-(2-(2,6-dioxopiperidin-3-yl)-1-oxoisoindolin-4-yl)-11-oxo-3,6,9,15-tetraoxa-12-azaoctadecyl)oxy)-2-methyl-5′-morpholino-[3,3′-bipyridin]-5-yl)-3-(trifluoromethyl)-benzamide] | +++ (50% > RAF/E3 Dimerization ≥ 25)
15 | O=C1CCC(N2C(=O)c3cccc(NC(=O)CCCCCn4cc(CCNC(=O)c5cc(Oc6ccc(NC(=O)Nc7ccc(Cl)c(C(F)(F)F)c7)cc6)ccn5)nn4)c3C2=O)C(=O)N1 (stereo not shown) [Compound 2.025, 4-(4-(3-(4-chloro-3-(trifluoromethyl)phenyl)ureido)phenoxy)-N-(2-(1-(6-((2-(2,6-dioxopiperidin-3-yl)-1,3-dioxoisoindolin-4-yl)amino)-6-oxohexyl)-1H-1,2,3-triazol-4-yl)ethyl)picolinamide] | ++ (25% > RAF/E3 Dimerization ≥ 5%)
16 | O=C1CCC(N2C(=O)c3cccc(NC(=O)CCCCCn4cc(COCCOCCOCCOCCOCCNC(=O)c5cc(Oc6ccc(NC(=O)Nc7ccc(Cl)c(C(F)(F)F)c7)cc6)ccn5)nn4)c3C2=O)C(=O)N1 (stereo not shown) [Compound 2.028, 4-(4-(3-(4-chloro-3-(trifluoromethyl)phenyl)ureido)phenoxy)-N-(1-(1-(6-((2-(2,6-dioxopiperidin-3-yl)-1,3-dioxoisoindolin-4-yl)amino)-6-oxohexyl)-1H-1,2,3-triazol-4-yl)-2,5,8,11,14-pentaoxahexadecan-16-yl)picolinamide] | ++ (25% > RAF/E3 Dimerization ≥ 5%)
